Measured values reported in patent publication US6403587B1, “Heteroaryl-hexanoic acid amide derivatives, their preparation and their use as selective inhibitors of MIP-1-α binding to its CCR 1 receptor” (Pfizer Inc., priority 1997, dated 2002).

Row | Structure (SMILES) | melting point [°C]
1 | CC(C)(O)CC[C@H](C[C@H](O)[C@H](Cc1cccc(F)c1)NC(=O)c1cnc2c(F)c(F)c(F)cc2c1)C(N)=O [Example 332, 6,7,8-Trifluoro-quinoline-3-carboxylic acid [4(R)-carbamoyl-1(S)-(3-fluoro-benzyl)-2(S),7-dihydroxy-7-methyl-octyl]-amide] | 183 to 185
2 | NC(=O)C(Cc1ccc(O)cc1)CC(O)C(Cc1ccccc1)NC(=O)c1cnc2ccccc2n1 (stereo not shown) [Example 336, Quinoxaline-2-carboxylic acid [1-benzyl-4-carbamoyl-2-hydroxy-5-(4-hydroxy-phenyl)-pentyl]-amide] | 190.5 to 191.5
3 | CC(C)(O)CC[C@H](C[C@H](O)[C@H](Cc1csc2ccccc12)NC(=O)c1cnc2ccccc2n1)C(N)=O [Example 335, Quinoxaline-2-carboxylic acid (1(S)-benzo[b]thiophen-3-ylmethyl-4(R)-carbamoyl-2(S),7-dihydroxy-7-methyl-octyl)-amide] | 163 to 164
4 | CC(C)(O)CC[C@H](C[C@H](O)[C@H](Cc1cc(F)cc(F)c1)NC(=O)c1cnc2ccccc2n1)C(N)=O [Example 315, Quinoxaline-2-carboxylic acid [4(R)-carbamoyl-1(S)-(3,5-difluoro-benzyl)-2(S),7-dihydroxy-7-methyl-octyl]-amide] | 162 to 163
5 | CC(C)(O)CC[C@H](C[C@H](O)[C@H](Cc1cccs1)NC(=O)c1cnc2ccccc2n1)C(N)=O [Example 327, Quinoxaline-2-carboxylic acid (4(R)-carbamoyl-2(S),7-dihydroxy-7-methyl-1(S)-thiophen-2-ylmethyl-octyl)-amide] | 158 to 159
6 | CC(C)(O)CC[C@H](C[C@H](O)[C@H](Cc1ccccc1F)NC(=O)c1cnc2ccccc2n1)C(=O)NO [Example 326, Quinoxaline-2-carboxylic acid [1(S)-(2-fluoro-benzyl)-2(S),7-dihydroxy4(R)-hydroxycarbamoyl-7-methyl-octyl]-amide] | 130 to 131
7 | CC(C)(O)CC[C@H](C[C@H](O)[C@H](Cc1cc(F)cc(F)c1)NC(=O)c1cnc2ccccc2n1)C(=O)NO [Example 320, Quinoxaline-2-carboxylic acid [1(S)-(3,5-difluoro-benzyl)-2(S),7-dihydroxy-4(R)-hydroxycarbamoyl-7-methyl-octyl]-amide] | 98 to 100
8 | CC(C)(O)CC[C@H](C[C@H](O)[C@H](Cc1ccccc1F)NC(=O)c1cnc2ccccc2n1)C(N)=O [Example 328, Quinoxaline-2-carboxylic acid [4(R)-carbamoyl-1(S)-(2-fluoro-benzyl)-2(S),7-dihydroxy-7-methyl-octyl]-amide] | 147 to 148
9 | CC(C)(O)CC[C@H](C[C@H](O)[C@H](Cc1ccc(F)c(F)c1)NC(=O)c1cnc2ccccc2n1)C(N)=O [Example 330, Quinoxaline-2-carboxylic acid [4(R)-carbamoyl-1(S)-(3,4-difluoro-benzyl)-2(S),7-dihydroxy-7-methyl-octyl]-amide] | 110 to 120
10 | CC(C)(O)CC[C@H](C[C@H](O)[C@H](Cc1ccc2ccccc2c1)NC(=O)c1cnc2ccccc2n1)C(N)=O [Example 333, Quinoxaline-2-carboxylic acid (4(R)-carbamoyl-2(S),7-dihydroxy-7-methyl-1(S)-naphthalen-2-ylmethyl-octyl)-amide] | 104 to 106
11 | CC(C)(O)CC[C@H](C[C@H](O)[C@H](Cc1ccccc1)NC(=O)c1cnccc1C(F)(F)F)C(N)=O [Example 323, N-(1(S)-Benzyl-4(R)-carbamoyl-2(S),7-dihydroxy-7-methyl-octyl)-4-trifluoromethyl-nicotinamide] | 131 to 135
12 | CC(C)(O)CC[C@H](C[C@H](O)[C@H](Cc1ccc(F)c(F)c1)NC(=O)c1cnc2ccccc2n1)C(=O)NO [Example 329, Quinoxaline-2-carboxylic acid [1(S)-(3,4-difluoro-benzyl)-2(S),7-dihydroxy-4(R)-hydroxycarbamoyl-7-methyl-octyl]-amide] | 150 to 153
13 | CC(C)(O)CC[C@H](C[C@H](O)[C@H](Cc1cccc2ccccc12)NC(=O)c1cnc2ccccc2n1)C(N)=O [Example 331, Quinoxaline-2-carboxylic acid (4(R)-carbamoyl-2(S),7-dihydroxy-7-methyl-1(S)-naphthalen-1-ylmethyl-octyl)-amide] | 155 to 158
